Assay results: publication PMC9145622, “Synthesis, Biological Evaluation, and Docking Studies of Antagonistic Hydroxylated Arecaidine Esters Targeting mAChRs” (Molecules, 2022)

What was measured:
[1] = High-throughput HPLC-logD; assay type: physicochemical; conditions: octadecyl-poly(vinyl alcohol) column, methanol / 0.01 M sodium phosphate buffer pH 7.4
Excerpt: For this, logD values were estimated in an HPLC-based high-throughput assay employing an octadecyl-poly(vinyl alcohol) stationary phase. The absence of silanol groups renders this type of column especially suited in case of analytes with hydrogen bond donor capabilities as it avoids overestimating their lipophilicity.
Briefly, a mixture of toluene (≥98%, Sigma-Aldrich, St. Louis, MO, USA) and triphenylene (≥99.9%, Carl Roth, Karlsruhe, Germany) was used as internal standard. Samples were dissolved in the internal standard mixture. Using gradient elution, the injection volume was set to 7 µL, the flow rate was 1.5 mL/min, and the mobile phase consisted of a mixture of methanol and 0.01 M sodium phosphate buffer pH 7.4. The HPLC-logD values were derived from the measured retention times following the previously published equation [21, 40].

[2] = molecular target: hM3 (Homo sapiens, UniProt P20309); experiment: Competitive [3H]NMS radioligand binding, CHO-K1 membranes expressing hM3; conditions: [3H]NMS, CHO-hM3 cell membrane preparations; read-out: Affinity: Ki ± SD hM3
Sequence of hM3 (P20309 whole entry): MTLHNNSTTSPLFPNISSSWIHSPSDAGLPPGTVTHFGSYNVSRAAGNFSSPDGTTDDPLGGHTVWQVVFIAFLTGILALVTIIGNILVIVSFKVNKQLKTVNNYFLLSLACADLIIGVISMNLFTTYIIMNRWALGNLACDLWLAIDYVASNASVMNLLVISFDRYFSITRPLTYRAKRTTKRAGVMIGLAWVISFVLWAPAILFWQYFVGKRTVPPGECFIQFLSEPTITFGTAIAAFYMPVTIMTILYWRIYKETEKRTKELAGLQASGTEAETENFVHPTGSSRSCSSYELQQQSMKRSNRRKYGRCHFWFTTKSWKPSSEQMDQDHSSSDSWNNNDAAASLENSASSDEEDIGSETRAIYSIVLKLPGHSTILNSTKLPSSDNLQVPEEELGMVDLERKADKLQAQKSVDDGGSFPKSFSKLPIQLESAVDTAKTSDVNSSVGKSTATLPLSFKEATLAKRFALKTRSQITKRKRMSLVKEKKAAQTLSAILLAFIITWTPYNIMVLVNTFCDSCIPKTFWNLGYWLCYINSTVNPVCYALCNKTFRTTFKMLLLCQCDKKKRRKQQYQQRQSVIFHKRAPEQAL
Excerpt: (§1) The arecaidine esters’ affinities towards the human mAChR subtypes hM1–hM5 were studied in a competitive radioligand binding assay using CHO-K1 cell membrane homogenates expressing a single mAChR subtype and tritiated N-methyl scopolamine methyl chloride ([^3H]NMS). To speed up our affinity testing regime, we subjected all test substances to preliminary single-concentration displacement assays, as described previously. Compounds with percent displacements below 75% at any of the subtypes were dropped from further investigations (Table S1). For compounds meeting the percent displacement threshold (8c, 10b, 10c, 17b, 18b, and 25), inhibition constants (Ki) were assessed in dose-dependent displacement experiments (Table 2).
(§2) Cell membranes bearing hM1-hM5 receptors were prepared as described previously. Briefly, stably transfected CHO-K1 cells were grown to at least 80% confluency in T175 flasks, washed with ice-cold DPBS, and scraped into a mixture of ice-cold 2 mL 10 mM Tris-HCl, 1 mM EDTA-buffer, pH 7.4 and 200 µL protease inhibitor. A cell homogenate was prepared by passing the cell suspension through a G29 needle. The cell homogenates corresponding to two T175 flasks were combined and subsequently centrifuged (10 min, 1000× g, 4 °C). Ultracentrifugation of the supernatant (1 h, 100,000× g, 4 °C) yielded a membrane pellet, which was suspended in 250 µL 50 mM Tris-HCl buffer, pH 7.4 and stored at −80 °C.
(§3) Then, 5 µL of test compound in DMSO, 50 µL of [^3H]NMS in assay buffer, and 445 µL of membrane suspension in assay buffer were incubated for 90 min at 23 °C in PP tubes. Maximum binding was measured by using 5 µL DMSO, and nonspecific binding was measured by using 5 µL of 1 µM scopolamine in DMSO. The effective concentration of [^3H]NMS was 0.2 nM, 0.3 nM, 0.8 nM, 0.2 nM, and 1 nM for M1–M5 and 4–30 µg membrane were used per tube. The membrane-bound radioactivity was recovered by filtration through Whatman™ GF/B glass fiber filters presoaked in aqueous 0.1% PEI using an M-36 tygon tubed cell harvester (Brandel®, Gaithersburg, MD, USA). Membranes were washed three times with ice-cold washing buffer (50 mM Tris, pH 7.4) before being dried, transferred to 2 mL scintillation cocktail (UltimaGold™, high flashpoint LSC cocktail, PerkinElmer, Waltham, MA, USA) and counted in a β-counter (Hidex TDCR liquid scintillation counter in CPM mode). IC50 values were calculated by a variable slope logistic regression using at least five distinct concentrations of test compounds, pipetted in triplicates.

[3] = molecular target: T1, hM5 (Homo sapiens, UniProt P08912); experiment: Competitive [3H]NMS radioligand binding, CHO-K1 membranes expressing hM5; conditions: for Ki: [3H]NMS, CHO-hM5 cell membrane preparations, read-out: Affinity: Ki ± SD hM5
T1 sequence (P08912 1-532): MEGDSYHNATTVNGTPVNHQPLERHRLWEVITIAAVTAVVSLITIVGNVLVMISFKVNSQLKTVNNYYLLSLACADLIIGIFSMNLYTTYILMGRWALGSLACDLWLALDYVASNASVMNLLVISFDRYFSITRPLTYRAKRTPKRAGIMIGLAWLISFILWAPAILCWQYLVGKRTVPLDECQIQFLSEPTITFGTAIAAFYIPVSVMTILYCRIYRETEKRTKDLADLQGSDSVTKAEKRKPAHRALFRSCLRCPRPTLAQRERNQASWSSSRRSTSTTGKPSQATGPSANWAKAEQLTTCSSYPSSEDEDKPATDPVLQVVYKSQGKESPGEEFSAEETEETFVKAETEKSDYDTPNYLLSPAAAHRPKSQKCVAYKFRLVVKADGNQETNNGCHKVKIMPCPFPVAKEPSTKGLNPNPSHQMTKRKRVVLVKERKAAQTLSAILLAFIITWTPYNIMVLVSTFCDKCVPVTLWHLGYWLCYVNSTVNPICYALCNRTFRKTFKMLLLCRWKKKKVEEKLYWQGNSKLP
Excerpt: as §1, §2, §3

[4] = molecular target: T2, hM4 (Homo sapiens, UniProt P08173); experiment: Competitive [3H]NMS radioligand binding, CHO-K1 membranes expressing hM4; conditions: [3H]NMS, CHO-hM4 cell membrane preparations; read-out: Affinity: Ki ± SD hM4
T2 sequence (P08173 1-479): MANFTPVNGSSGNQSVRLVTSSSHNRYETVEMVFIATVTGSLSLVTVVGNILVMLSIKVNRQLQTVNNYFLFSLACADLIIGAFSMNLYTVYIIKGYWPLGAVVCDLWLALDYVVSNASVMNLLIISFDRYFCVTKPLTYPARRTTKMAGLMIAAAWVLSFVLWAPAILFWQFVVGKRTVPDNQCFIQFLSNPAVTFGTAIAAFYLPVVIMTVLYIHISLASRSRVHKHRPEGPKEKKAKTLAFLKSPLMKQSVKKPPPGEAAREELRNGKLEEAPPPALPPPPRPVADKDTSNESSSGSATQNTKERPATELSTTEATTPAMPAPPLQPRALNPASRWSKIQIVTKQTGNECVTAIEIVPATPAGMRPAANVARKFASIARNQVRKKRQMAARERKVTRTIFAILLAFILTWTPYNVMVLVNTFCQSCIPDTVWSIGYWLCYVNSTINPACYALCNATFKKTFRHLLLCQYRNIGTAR
Excerpt: as §1, §2, §3

Row | Compound | chromatographic logD [1] | Ki [2] | Ki [3] | Ki [4] | preference for hM5R over hM1R ([3]; in vitro binding affinities)
1 | CN1CCC=C(C(=O)OCc2ccc(CO)cc2)C1 [Compound 8c, 4-(hydroxymethyl)benzyl 1-methyl-1,2,5,6-tetrahydropyridine-3-carboxylate] | 1.03 ± 0.04 | 663 ± 56 nM | 417 ± 73 nM | 697 ± 132 nM | –
2 | CN1CCC=C(C(=O)OC(c2ccccc2)c2ccc(CO)cc2)C1 (stereo not drawn) [Compound 10c, (4-(hydroxymethyl)phenyl)(phenyl)methyl 1-methyl-1,2,5,6-tetrahydropyridine-3-carboxylate] | 2.8 ± 0.2 | 150 ± 26 nM | 72 ± 13 nM | 93 ± 23 nM | –
3 | CN1CCC=C(C(=O)OC(c2ccccc2)c2cccc(O)c2)C1 (stereo not drawn) [Compound 17b, (3-hydroxyphenyl)(phenyl)methyl 1-methyl-1,2,5,6-tetrahydropyridine-3-carboxylate] | 2.69 ± 0.01 | 20.4 ± 1.2 nM | 11 ± 1.5 nM | 18.4 ± 5.8 nM | –
4 | CN1CCC=C(C(=O)OCc2cccc(O)c2)C1 [Compound 18b, 3-hydroxybenzyl 1-methyl-1,2,5,6-tetrahydropyridine-3-carboxylate] | 1.57 ± 0.04 | 188 ± 18 nM | 90 ± 27 nM | 634 ± 90 nM | almost threefold
5 | CN1CCC=C(C(=O)OCC(O)(c2ccccc2)c2ccccc2)C1 [Compound 25, 2-hydroxy-2,2-diphenylethyl 1-methyl-1,2,5,6-tetrahydropyridine-3-carboxylate] | 2.69 ± 0.01 | 283 ± 20 nM | 284 ± 62 nM | 217 ± 23 nM | –
